{"source": "patent US20240383906A1", "about": "“5-SUBSTITUTED PYRIDINE-2(1H)-KETONE COMPOUND AND USE THEREOF” (JIANGSU KANION PHARMACEUTICAL CO., LTD., priority 2021, published 2024)", "key": {"[1]": {"system": "WNT pathway STF reporter gene", "assay": "Super-Top-Flash (STF) reporter gene inhibitory activity test", "type": "cell-based", "details": "HEK293 STF and L wnt3A cells 1:1, 24 hours, Bright-Glo", "method": "HEK293 STF and L wnt3A cells were provided by Wuhan Heyan Biomedical Technology Co., Ltd., and Bright Glo was purchased from Promega.\n• HEK293 STF and L wnt3A cells were seeded in a white 96-well plate at a ratio of 1:1, with 80 μL of cell suspension per well, each containing 20,000 HEK293 STF cells and 20,000 L wnt3A cells. The cell plate was placed in a carbon dioxide incubator for overnight culture.\nThe test compounds were 5-fold diluted with a multi-channel pipette to the 8th concentration, i.e., diluted from 400 μM to 5.12 nM, and duplicate experiment was set. 78 μL of culture medium was added to an intermediate plate, and then 2 μL of gradient diluted compound per well was transferred to the intermediate plate according to the corresponding position. After mixing well, the compound was transferred to the cell plate at 20 μL per well. The cell plate was placed in a carbon dioxide incubator and cultured for 24 hours.\n100 μL of Promega Bright-Glo reagent was added to each well of the cell plate, and it was incubated at room temperature for 10 minutes to stabilize the luminescent signal. A multimode microplate reader was used for reading.\nUsing the raw data from the multimode microplate reader, the IC50 value could be obtained through curve fitting. Table 10 provides the data on the inhibitory activity of the compounds of the present disclosure on the Wnt signaling pathway."}, "[2]": {"system": "HuPrime® gastric cancer GA3055 subcutaneous xenograft model", "assay": "In vivo drug efficacy in HuPrime gastric cancer GA3055 subcutaneous xenograft model", "design": "species or system female BALB/C nude mice", "details": "BID", "text": "• GA3055 tumor-bearing mice were provided by Crown Bioscience (Taicang) Co., Ltd.\nTumor tissue was collected from tumor-bearing mice of the HuPrime® gastric cancer GA3055 xenograft model, and cut into tumor pieces with a diameter of 2 to 3 mm for subcutaneous inoculation in the right anterior scapular region of BALB/c nude mice. When the average tumor volume in the tumor-bearing mice reached approximately 150 mm^3, the mice were randomly grouped. The coefficient of variation (CV) of the tumor volume within each group was calculated using the formula CV=SD/MTV×100%, and should be less than 30%. Administration started on the day of grouping (the tumor volume was measured on the day of grouping). The day of grouping was defined as day 0.\nBefore the start of administration, all animals were weighed and the tumor volume was measured using a caliper. Given that the volume of the tumor could affect the effectiveness of the treatment, a random grouping design method was used. The mice were grouped based on the volume of their tumors to ensure similar tumor volumes across different groups. Grouping was done using StudyDirector™ (version 3.1.399.19, supplier: Studylog System, Inc., S. San Francisco, CA, USA).\nThe “Matched distribution” random grouping method was chosen for grouping, which could reflect the smallest intergroup differences at the tumor volume level. This algorithm matched the individual measurements of all selected animals with the average value of all selected animals. Firstly, those paired animals whose average values were close to the average value of all selected animals were chosen, and then they were allocated to groups so that the average value of the group matched (or was as close as possible to) the average value of all selected animals. The final average value of the measurements of each group was as close as possible to the final average value of the other groups.\nAfter the inoculation of tumor cells, routine monitoring included the growth of the tumor and the impact of the treatment on the normal behavior of the animals. Specific content included the activity of the experimental animals, food and water intake, weight gain or loss, and any abnormalities in their eyes, fur, and other conditions. Any clinical symptoms observed during the experiment were recorded in the original data. After the start of administration, the weight of the mice and the size of the tumor were measured twice a week. […] The original data was directly imported into the software after being measured by a balance and caliper, and any changes in the data were recorded in this software. […]\nAll experimental results were expressed as the mean tumor volume±SEM (standard error of the mean). […] All data were analyzed using SPSS 18.0. […]"}}}
{"smiles": "Cn1cc(-c2cnc(CNc3nccn4c(-c5cc(F)cc(F)c5)cnc34)cn2)ccc1=O", "note": "[Compound 2]", "values": [{"measurement": "IC50", "setting": "[1]", "result": 0.23, "unit": "nM"}, {"measurement": "T/C %", "setting": "[2]; 5 mg/Kg, 37 days", "result": 12.97, "unit": "%"}, {"measurement": "TGI %", "setting": "[2]; 5 mg/Kg, 37 days", "result": 94.6, "unit": "%"}, {"measurement": "T/C %", "setting": "[2]; 10 mg/Kg", "result": 10.89, "unit": "%"}, {"measurement": "TGI %", "setting": "[2]; 10 mg/Kg", "result": 96.8, "unit": "%"}]}
